# Reference: patent US10821115B2, “Compounds that inhibit Mcl-1 protein” (priority 2017, dated 2020)
# Columns and labels:
# [1] = tested on: OPM-2 Luc cells; experiment: tumor PD model (OPM-2 Luc); type: in vivo; details: dosed orally to female athymic nude mice inoculated with OPM-2 Luc cells; compared with Reference Compound 1
# Protocol: Both compounds were dosed orally to female athymic nude mice inoculated with OPM-2 Luc cells.
# [2] = tested on: OPM-2 Luc cells; experiment: OPM-2 xenograft efficacy model; type: in vivo; details: dosed orally to female athymic nude mice inoculated with OPM-2 Luc cells
# Protocol: Example 1 was dosed orally to female athymic nude mice inoculated with OPM-2 Luc cells.
# [3] = tested on: human multiple myeloma cell line, OPM-2; experiment: Cell viability assay (OPM-2 10 FBS), CellTiter-Glo; type: cell-based; details: read-out: OPM-2 10% FBS IC50 IP; OPM-2 cells, 10% FBS, 16 h incubation
# How it was run: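 Steps: plate cells at 3000/well in 10% FBS growth medium, add serially diluted compound, incubate 16 h at 37 °C with 5% CO2, add detection reagent and read luminescence after 25 min. A 4-parameter logistic model gives IC50.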
# [4] = target: recombinant human Mcl-1 (residues 171-327) / Bim interaction (Homo sapiens (Human), UniProt Q07820); experiment: biochemical; type: binding; details: 0.1 nM Mcl-1(171-327), 0.05 nM biotin-Bim (51-76); read-out: Mcl-1 HTRF IC50
# Chain of recombinant human Mcl-1 (residues 171-327) / Bim interaction (Q07820 171-327): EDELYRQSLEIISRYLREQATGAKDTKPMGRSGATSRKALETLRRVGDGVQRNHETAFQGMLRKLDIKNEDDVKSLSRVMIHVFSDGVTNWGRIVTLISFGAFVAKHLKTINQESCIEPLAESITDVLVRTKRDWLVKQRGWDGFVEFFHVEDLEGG
smiles,measurement,setting,value
"CO[C@]1(CN2CCN3CCOC[C@@H]3C2)/C=C/C[C@H](C)[C@@H](C)S(=O)(=O)NC(=O)c2ccc3c(c2)N(C[C@@H]2CC[C@H]21)C[C@@]1(CCCc2cc(Cl)ccc21)CO3 [Example 4, (1S,3′R,6′R,7′R,8′E,11′S,12′R)-6-CHLORO-7′-((9AS)-HEXAHYDROPYRAZINO[2,1-C][1,4]OXAZIN-8(1H)-YLMETHYL)-7′-METHOXY-11′,12′-DIMETHYL-3,4-DIHYDRO-2H, 15′H-SPIRO[NAPHTHALENE-1,22′-[20]OXA[13]THIA[1,14]DIAZATETRACYCLO[14.7.2.0-3,6˜.0˜19,24˜]PENT ACOSA[8,16,18,24]TETRAEN]-15′-ONE 13′,13′-DIOXIDE]",in vivo efficacy relative to Reference Compound 1 in a tumor PD model,[1],superior in vivo efficacy
same,in vivo efficacy in an OPM-2 xenograft efficacy model,[2],in vivo efficacy
same,IC50,[3],94 nM
same,IC50,[4],0.116 nM
